ChEMBL document CHEMBL5291721, “A preclinical secondary pharmacology resource illuminates target-adverse drug reaction associations of marketed drugs” (Nat Commun, 2023)

Legend:
[1] = biological target: T1, Alpha-1A adrenergic receptor (Homo sapiens, UniProt P35348); type: functional, cell-based
T1 sequence (P35348 whole entry): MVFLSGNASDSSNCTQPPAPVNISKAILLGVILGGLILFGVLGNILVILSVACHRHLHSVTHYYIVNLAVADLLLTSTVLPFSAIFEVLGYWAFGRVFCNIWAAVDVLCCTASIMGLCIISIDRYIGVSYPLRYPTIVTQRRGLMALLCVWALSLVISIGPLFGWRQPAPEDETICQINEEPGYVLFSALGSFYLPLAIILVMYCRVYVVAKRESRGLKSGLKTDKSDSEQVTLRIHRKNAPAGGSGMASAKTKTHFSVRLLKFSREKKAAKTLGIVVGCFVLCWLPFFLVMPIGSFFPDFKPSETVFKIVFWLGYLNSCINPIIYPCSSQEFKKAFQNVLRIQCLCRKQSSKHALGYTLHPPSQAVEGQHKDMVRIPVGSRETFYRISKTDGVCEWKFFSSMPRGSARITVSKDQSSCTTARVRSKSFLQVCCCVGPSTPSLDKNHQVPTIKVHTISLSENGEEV

[2] = biological target: T1, Alpha-1A adrenergic receptor; type: functional, cell-based; remark: listed apart in the source
[3] = biological target: Gamma-aminobutyric acid receptor subunit alpha-1 (Rattus norvegicus, UniProt P62813)
Sequence of Gamma-aminobutyric acid receptor subunit alpha-1 (P62813 whole entry): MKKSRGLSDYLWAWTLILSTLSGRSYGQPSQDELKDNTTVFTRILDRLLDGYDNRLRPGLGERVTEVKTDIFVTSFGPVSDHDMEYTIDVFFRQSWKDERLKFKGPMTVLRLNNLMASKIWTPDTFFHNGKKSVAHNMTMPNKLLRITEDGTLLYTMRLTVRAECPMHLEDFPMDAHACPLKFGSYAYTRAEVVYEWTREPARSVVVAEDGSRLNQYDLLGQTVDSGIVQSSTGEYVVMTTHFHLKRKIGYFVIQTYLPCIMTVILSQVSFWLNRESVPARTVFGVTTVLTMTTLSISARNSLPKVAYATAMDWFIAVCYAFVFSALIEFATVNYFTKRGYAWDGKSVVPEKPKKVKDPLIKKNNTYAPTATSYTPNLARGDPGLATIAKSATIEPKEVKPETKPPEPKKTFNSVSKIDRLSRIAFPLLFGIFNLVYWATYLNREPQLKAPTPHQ

[4] = biological target: Prostaglandin G/H synthase 1 (Homo sapiens, UniProt P23219); type: functional
Sequence of Prostaglandin G/H synthase 1 (P23219 whole entry): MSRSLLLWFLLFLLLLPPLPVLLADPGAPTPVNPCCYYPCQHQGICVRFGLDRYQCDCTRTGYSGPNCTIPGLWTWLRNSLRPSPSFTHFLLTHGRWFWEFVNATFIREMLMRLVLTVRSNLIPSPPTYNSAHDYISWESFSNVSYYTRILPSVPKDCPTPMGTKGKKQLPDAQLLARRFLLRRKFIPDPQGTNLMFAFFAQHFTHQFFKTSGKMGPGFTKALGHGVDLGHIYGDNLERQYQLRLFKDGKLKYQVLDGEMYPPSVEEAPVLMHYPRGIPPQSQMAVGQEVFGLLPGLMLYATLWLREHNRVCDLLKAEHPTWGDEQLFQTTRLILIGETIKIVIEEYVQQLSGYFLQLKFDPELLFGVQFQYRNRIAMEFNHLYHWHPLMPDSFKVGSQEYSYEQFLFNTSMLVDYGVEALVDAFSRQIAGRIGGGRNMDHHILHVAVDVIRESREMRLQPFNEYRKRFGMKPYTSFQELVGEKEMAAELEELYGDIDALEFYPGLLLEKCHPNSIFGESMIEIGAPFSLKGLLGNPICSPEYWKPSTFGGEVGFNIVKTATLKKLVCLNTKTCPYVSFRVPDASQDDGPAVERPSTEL

[5] = biological target: T2, Muscarinic acetylcholine receptor M1 (Homo sapiens, UniProt P11229); type: functional, cell-based
T2 sequence (P11229 whole entry): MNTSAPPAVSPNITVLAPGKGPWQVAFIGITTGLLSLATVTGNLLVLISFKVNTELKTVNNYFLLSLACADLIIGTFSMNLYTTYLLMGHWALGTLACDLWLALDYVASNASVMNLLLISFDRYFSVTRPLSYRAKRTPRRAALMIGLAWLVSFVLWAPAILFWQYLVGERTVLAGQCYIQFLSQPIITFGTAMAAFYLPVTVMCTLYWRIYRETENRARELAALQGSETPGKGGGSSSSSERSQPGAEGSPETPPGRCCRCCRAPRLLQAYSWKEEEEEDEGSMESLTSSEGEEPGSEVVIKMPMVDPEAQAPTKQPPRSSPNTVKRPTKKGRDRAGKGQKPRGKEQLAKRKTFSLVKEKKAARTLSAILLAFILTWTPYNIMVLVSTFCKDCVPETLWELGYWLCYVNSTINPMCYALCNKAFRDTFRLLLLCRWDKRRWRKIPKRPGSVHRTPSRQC

[6] = biological target: T3, Gastrin/cholecystokinin type B receptor (Homo sapiens, UniProt P32239)
T3 sequence (P32239 whole entry): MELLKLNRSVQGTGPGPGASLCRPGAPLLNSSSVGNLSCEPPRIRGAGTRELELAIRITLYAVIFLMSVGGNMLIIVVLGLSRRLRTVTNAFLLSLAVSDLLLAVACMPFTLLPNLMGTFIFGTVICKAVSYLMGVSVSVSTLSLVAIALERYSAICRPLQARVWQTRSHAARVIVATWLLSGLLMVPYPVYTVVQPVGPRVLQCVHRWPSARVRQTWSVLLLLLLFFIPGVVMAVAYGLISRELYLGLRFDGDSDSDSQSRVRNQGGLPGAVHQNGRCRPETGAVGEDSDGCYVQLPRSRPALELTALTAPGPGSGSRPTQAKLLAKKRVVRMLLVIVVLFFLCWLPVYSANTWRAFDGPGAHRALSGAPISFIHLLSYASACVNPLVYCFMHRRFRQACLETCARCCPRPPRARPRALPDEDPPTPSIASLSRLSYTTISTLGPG

[7] = biological target: 3',5'-cyclic-AMP phosphodiesterase 4D (Homo sapiens, UniProt Q08499); type: functional
Sequence of 3',5'-cyclic-AMP phosphodiesterase 4D (Q08499 whole entry): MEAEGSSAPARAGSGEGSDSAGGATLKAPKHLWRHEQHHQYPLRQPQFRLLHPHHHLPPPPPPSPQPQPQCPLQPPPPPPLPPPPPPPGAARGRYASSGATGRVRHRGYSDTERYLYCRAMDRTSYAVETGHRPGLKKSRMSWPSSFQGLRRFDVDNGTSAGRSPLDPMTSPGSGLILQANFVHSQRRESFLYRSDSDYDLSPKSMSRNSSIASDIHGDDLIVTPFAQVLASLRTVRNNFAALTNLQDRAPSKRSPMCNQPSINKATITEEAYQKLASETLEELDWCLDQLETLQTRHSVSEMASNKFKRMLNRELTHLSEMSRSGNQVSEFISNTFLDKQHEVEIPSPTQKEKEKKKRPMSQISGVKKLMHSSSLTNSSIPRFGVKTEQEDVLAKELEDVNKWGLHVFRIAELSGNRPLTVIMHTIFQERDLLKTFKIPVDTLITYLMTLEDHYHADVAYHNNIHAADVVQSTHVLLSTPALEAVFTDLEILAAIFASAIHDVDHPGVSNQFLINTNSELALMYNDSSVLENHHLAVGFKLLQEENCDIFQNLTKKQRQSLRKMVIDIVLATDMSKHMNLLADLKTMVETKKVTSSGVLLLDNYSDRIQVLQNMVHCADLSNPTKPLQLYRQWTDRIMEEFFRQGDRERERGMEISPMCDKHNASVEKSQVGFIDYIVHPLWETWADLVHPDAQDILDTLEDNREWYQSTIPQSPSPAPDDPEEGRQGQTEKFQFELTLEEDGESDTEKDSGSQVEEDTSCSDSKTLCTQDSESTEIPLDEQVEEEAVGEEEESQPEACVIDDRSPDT

[8] = biological target: T4, Neuropeptide Y receptor type 1 (Homo sapiens, UniProt P25929)
T4 sequence (P25929 whole entry): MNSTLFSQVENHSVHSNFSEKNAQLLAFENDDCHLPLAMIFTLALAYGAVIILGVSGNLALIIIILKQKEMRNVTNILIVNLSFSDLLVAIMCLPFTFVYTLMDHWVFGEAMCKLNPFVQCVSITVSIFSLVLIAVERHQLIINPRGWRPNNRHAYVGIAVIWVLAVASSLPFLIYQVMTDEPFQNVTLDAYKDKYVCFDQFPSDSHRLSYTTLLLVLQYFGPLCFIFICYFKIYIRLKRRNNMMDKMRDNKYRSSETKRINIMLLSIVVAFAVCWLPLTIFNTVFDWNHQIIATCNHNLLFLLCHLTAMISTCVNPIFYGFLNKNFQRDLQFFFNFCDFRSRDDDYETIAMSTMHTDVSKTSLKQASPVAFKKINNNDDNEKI

Mu-type opioid receptor = Mu-type opioid receptor (Homo sapiens, UniProt P35372)
Sequence of Mu-type opioid receptor (P35372 whole entry): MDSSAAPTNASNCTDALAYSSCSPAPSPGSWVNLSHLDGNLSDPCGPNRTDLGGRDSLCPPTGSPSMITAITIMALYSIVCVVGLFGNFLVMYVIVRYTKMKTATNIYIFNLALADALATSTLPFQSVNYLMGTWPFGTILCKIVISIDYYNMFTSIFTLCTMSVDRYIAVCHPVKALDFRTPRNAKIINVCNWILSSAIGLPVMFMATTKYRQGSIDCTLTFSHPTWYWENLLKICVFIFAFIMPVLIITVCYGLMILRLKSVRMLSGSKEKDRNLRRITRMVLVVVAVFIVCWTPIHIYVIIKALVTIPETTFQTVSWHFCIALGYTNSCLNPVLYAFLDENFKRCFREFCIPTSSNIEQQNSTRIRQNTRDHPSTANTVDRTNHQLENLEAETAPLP

Adenosine receptor A2a = Adenosine receptor A2a (Homo sapiens, UniProt P29274)
Sequence of Adenosine receptor A2a (P29274 whole entry): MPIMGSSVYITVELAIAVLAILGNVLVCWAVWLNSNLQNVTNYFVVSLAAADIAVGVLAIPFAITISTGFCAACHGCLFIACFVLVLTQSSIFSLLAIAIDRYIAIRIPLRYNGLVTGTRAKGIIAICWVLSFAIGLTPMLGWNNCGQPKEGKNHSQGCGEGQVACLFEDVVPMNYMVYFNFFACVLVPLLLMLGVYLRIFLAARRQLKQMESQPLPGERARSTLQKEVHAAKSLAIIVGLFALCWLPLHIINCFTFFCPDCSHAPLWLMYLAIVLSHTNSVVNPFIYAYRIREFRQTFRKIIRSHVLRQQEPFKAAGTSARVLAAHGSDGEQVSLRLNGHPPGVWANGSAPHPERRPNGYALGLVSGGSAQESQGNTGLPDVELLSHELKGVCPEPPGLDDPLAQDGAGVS

[9] = biological target: Delta-type opioid receptor (Homo sapiens, UniProt P41143)
Sequence of Delta-type opioid receptor (P41143 whole entry): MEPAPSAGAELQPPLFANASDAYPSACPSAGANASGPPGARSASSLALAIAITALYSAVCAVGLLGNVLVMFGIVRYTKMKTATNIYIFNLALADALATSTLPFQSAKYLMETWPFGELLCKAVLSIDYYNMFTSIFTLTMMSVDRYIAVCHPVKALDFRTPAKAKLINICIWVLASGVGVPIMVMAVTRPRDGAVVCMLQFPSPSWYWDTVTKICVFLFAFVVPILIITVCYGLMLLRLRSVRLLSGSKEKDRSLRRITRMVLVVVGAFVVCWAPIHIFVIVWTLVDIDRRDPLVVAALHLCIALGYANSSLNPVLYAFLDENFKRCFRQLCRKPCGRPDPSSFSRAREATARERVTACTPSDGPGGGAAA

[10] = biological target: 5-hydroxytryptamine receptor 2B (Homo sapiens, UniProt P41595); type: functional, cell-based
Sequence of 5-hydroxytryptamine receptor 2B (P41595 whole entry): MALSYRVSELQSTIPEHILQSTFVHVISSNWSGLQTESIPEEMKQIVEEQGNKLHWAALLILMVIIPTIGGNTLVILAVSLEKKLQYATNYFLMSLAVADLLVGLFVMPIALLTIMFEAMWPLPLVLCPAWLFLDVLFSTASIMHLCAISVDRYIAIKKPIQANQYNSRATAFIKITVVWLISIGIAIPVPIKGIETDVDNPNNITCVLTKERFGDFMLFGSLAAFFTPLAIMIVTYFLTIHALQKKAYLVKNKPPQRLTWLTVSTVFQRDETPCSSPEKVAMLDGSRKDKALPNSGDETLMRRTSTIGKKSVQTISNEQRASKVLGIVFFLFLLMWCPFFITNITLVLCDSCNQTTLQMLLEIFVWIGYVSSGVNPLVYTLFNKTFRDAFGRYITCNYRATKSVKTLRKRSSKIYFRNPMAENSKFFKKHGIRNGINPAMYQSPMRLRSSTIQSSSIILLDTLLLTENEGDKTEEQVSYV

[11] = biological target: T5, 5-hydroxytryptamine receptor 1A (Homo sapiens, UniProt P08908); type: functional, cell-based
T5 sequence (P08908 whole entry): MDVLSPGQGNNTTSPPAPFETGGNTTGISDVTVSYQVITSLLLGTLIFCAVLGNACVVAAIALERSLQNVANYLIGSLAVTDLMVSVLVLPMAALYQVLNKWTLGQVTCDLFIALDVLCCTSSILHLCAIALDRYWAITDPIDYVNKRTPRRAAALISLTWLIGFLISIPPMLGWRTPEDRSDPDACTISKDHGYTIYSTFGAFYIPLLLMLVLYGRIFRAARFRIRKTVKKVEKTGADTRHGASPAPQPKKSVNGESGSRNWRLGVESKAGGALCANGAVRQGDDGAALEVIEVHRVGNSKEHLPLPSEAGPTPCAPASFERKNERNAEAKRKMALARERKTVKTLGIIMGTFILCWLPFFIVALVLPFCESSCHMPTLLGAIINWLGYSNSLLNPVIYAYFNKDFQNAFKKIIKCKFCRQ
Further: assay procedure not described here.

Structure (SMILES) | AC50 [1] [µM] | AC50 [2] [µM] | AC50 [3] [µM] | AC50 [4] [µM] | AC50 [5] [µM] | AC50 [6] [µM] | AC50 [7] [µM] | AC50 [8] [µM] | AC50 (Mu-type opioid receptor) [µM] | AC50 (Adenosine receptor A2a) [µM] | AC50 [9] [µM] | AC50 [10] [µM] | AC50 [11] [µM]
Cc1cc2c(cc1S(N)(=O)=O)S(=O)(=O)CCC2 | > 30 | > 30 | > 30 | > 30 | > 30 | – | – | – | – | – | – | – | –
C[C@H](N[C@@H](CCc1ccccc1)C(=O)O)C(=O)N1Cc2ccccc2C[C@H]1C(=O)O | > 30 | > 30 | > 30 | > 30 | > 30 | – | – | – | – | – | – | – | –
O=C(O)[C@@H]1C[C@@H](O)CN1 | > 30 | > 30 | > 30 | > 30 | > 30 | – | – | – | – | – | – | – | –
CC1(C)S[C@@H]2[C@H](/N=C/N3CCCCCC3)C(=O)N2[C@H]1C(=O)O [AMDINOCILLIN] | > 30 | > 30 | > 30 | > 30 | > 30 | – | – | – | – | – | – | – | –
CC(=O)[C@]1(N)Cc2c(O)c3c(c(O)c2[C@@H](O[C@H]2C[C@H](O)[C@H](O)CO2)C1)C(=O)c1ccccc1C3=O [AMRUBICIN] | > 3 | 20.1 | > 30 | 2.81 | 18.4 | – | – | – | – | – | – | – | –
O=C(/C=C/c1cccc(S(=O)(=O)Nc2ccccc2)c1)NO [BELINOSTAT] | – | – | > 30 | 6.9 | – | > 30 | 7.1 | > 30 | > 30 | > 30 | > 30 | – | –
CC(O)(CS(=O)(=O)c1ccc(F)cc1)C(=O)Nc1ccc(C#N)c(C(F)(F)F)c1 (stereo not given) [BICALUTAMIDE] | > 3 | > 10 | > 30 | > 30 | – | > 30 | > 30 | > 30 | > 10 | > 30 | > 10 | > 10 | > 10
CC(C)(C)NC(=O)N[C@H](C(=O)N1C[C@H]2[C@@H]([C@H]1C(=O)NC(CC1CCC1)C(=O)C(N)=O)C2(C)C)C(C)(C)C (stereo not given in full) [BOCEPREVIR] | > 30 | > 30 | > 30 | > 30 | > 30 | – | – | – | – | – | – | – | –
Cc1cn([C@H]2O[C@@H](CO)[C@H](O)[C@H]2F)c(=O)[nH]c1=O [CLEVUDINE] | > 30 | > 30 | > 30 | > 30 | > 30 | – | – | – | – | – | – | – | –
CC(=O)O[C@]1(C(C)=O)CC[C@H]2[C@@H]3C=C(Cl)C4=CC(=O)[C@@H]5C[C@@H]5[C@]4(C)[C@H]3CC[C@@]21C [CYPROTERONE ACETATE] | > 3 | > 30 | > 30 | > 30 | – | > 30 | > 30 | > 30 | > 30 | > 30 | > 30 | – | –
CC(=O)[C@H]1CC[C@H]2[C@@H]3C=CC4=CC(=O)CC[C@@]4(C)[C@@H]3CC[C@]12C [DYDROGESTERONE] | 29.2 | > 30 | > 30 | > 30 | > 30 | – | – | – | – | – | – | – | –
Cc1ccc(S(=O)(=O)NC(=O)NC2CCCCC2)cc1 [GLYCYCLAMIDE] | > 30 | > 30 | > 30 | > 30 | > 30 | – | – | – | – | – | – | – | –
CN1CCCN(C(c2ccccc2)c2ccc(Cl)cc2)CC1 (stereo not given) [HOMOCHLORCYCLIZINE] | 2.89 | > 30 | > 30 | > 30 | > 30 | – | – | – | – | – | – | – | –
CC(=O)OCC(=O)[C@@]1(O)CC[C@H]2[C@@H]3CCC4=CC(=O)CC[C@]4(C)[C@H]3[C@@H](O)C[C@@]21C [HYDROCORTISONE ACETATE] | > 30 | > 30 | > 30 | > 30 | > 30 | – | – | – | – | – | – | – | –
CC(COc1ccccc1)NC(C)C(O)c1ccc(O)cc1 (stereo not given) [ISOXSUPRINE] | 1.04 | > 30 | > 30 | > 30 | > 30 | – | – | – | – | – | – | – | –
O=C(CCC/C=C\C[C@@H]1[C@@H](CC[C@@H](O)CCc2ccccc2)[C@H](O)C[C@@H]1O)OCCCCO[N+](=O)[O-] [LATANOPROSTENE BUNOD] | > 10 | > 30 | > 30 | 13.5 | > 30 | – | – | – | – | – | – | – | –
Cc1oc(=O)oc1COC(=O)[C@@H]1N2C(=O)[C@@H](NC(=O)[C@H](N)c3ccccc3)[C@H]2SC1(C)C [LENAMPICILLIN] | 24.5 | > 30 | > 30 | > 30 | > 30 | – | – | – | – | – | – | – | –
COC(=O)C[C@](O)(CCCC(C)(C)O)C(=O)O[C@@H]1C(OC)=C[C@]23CCCN2CCc2cc4c(cc2[C@H]13)OCO4 [OMACETAXINE MEPESUCCINATE] | > 30 | > 30 | > 30 | > 30 | > 30 | – | – | – | – | – | – | – | –
C[C@@H]1C[C@H]2[C@@H]3C[C@H](F)C4=CC(=O)C=C[C@]4(C)[C@H]3[C@@H](O)C[C@]2(C)[C@@]1(O)C(=O)CO [PARAMETHASONE] | > 30 | > 30 | > 30 | > 30 | > 30 | – | – | – | – | – | – | – | –
CCC[C@H](N[C@@H](C)C(=O)N1[C@H](C(=O)O)C[C@@H]2CCCC[C@@H]21)C(=O)OCC [PERINDOPRIL] | > 30 | > 30 | > 30 | > 30 | > 30 | – | – | – | – | – | – | – | –
N[C@@H](Cc1ccccc1)C(=O)O [PHENYLALANINE] | > 30 | > 30 | > 30 | > 30 | > 30 | – | – | – | – | – | – | – | –
CCCn1cnc2c1c(=O)n(CCCCC(C)=O)c(=O)n2C [PROPENTOFYLLINE] | > 30 | > 30 | > 30 | > 30 | > 30 | – | – | – | – | – | – | – | –
COc1cc(C)c2c(Oc3cccc(C(F)(F)F)c3)c(OC)cc(NC(C)CCCN)c2n1 (stereo not given) [TAFENOQUINE] | > 3 | > 3 | > 30 | 3.81 | > 3 | – | – | – | – | – | – | – | –
CCCSc1nc(N[C@@H]2C[C@H]2c2ccc(F)c(F)c2)c2nnn([C@@H]3C[C@H](OCCO)[C@@H](O)[C@H]3O)c2n1 [TICAGRELOR] | > 10 | > 30 | > 30 | 26.2 | > 30 | – | – | – | – | – | – | – | –
